Reference: US20080227763A1, “Topical hormonal composition with systemic action” (LABORATOIRE THERAMEX, priority 1998, published 2008)
Read-outs that look alike come from different tables or passages of the source.

How the values were obtained:
[1] = Solubility of nomegestrol acetate in solvent mixtures; format: physicochemical; conditions: ethanol/water/propyleneglycol ternary mixture, aqueous with cosolvent or surfactant or cyclodextrin, read-out: Solubilities
Description: The effect of a ternary mixture of solvents, ethanol/water (45:55)/propyleneglycol on the solubility of nomegestrol acetate was determined.
We also examined the possibility of lowering the proportion of alcohol in the solvent, by means of this ternary mixture, while maintaining similar solubility; for this we choose the influence of propyleneglycol on solubility in ethanol/water systems (40:60 and 30:70).

[2] = Clinical example No. 1: plasma nomegestrol acetate after gel applied daily to both breasts; format: in vivo, women
Description: In these examples, clinical trials were carried out on women, with the gel containing 0.11% of nomegestrol acetate, whose formulation is given in Table 1 of example I.
Twenty-four volunteers, women in good health and in the period of ovarian activity, with average age of 23.5 years, were treated on 15 consecutive days with 4 mg of nomegestrol acetate in a gel applied every day to both breasts.
Repeated blood samples were taken in the hours following the first and last administration, on 9 occasions (6 times before application of the gel and 3 times 3 hours afterwards), between the 2nd and the 14th day of treatment. The plasma of these samples was analysed for nomegestrol acetate by liquid chromatography combined with mass spectrometry.

breast pain = experiment: Clinical example No. 3: breast pain in premenopausal women treated with gel on both breasts; format: in vivo; conditions: 55 women, 4 mg/day as gel on both breasts
Description: In these examples, clinical trials were carried out on women, with the gel containing 0.11% of nomegestrol acetate, whose formulation is given in Table 1 of example I. […], who had been suffering from breast pains for more than 3 months and for at least 7 days per cycle, were treated for an average time of 130 days with 4 mg of nomegestrol acetate applied each day, on the last 15 days of the menstrual cycle, in the form of a gel on both breasts. Efficacy was assessed after 3 months and at the end of treatment using a visual analogue scale for quantifying breast pain.

[3] = Solubility of nomegestrol acetate in solvent mixtures; format: physicochemical
[4] = after the last administration (15 consecutive days)
[5] = first day of treatment, 4 mg nomegestrol acetate in 0.11% gel on both breasts

- solubility ([1]; System I (Ethanol 95° 30%/Demineralized water 70%), 2% propyleneglycol): 600 µg/mL
- solubility ([1]; System II (Ethanol 95° 40%/Demineralized water 60%), 2% propyleneglycol): 2600 µg/mL
- solubility ([1]; System II (Ethanol 95° 40%/Demineralized water 60%), 6% propyleneglycol): 3000 µg/mL
- solubility ([1]; System II (Ethanol 95° 40%/Demineralized water 60%), 12% propyleneglycol): 3400 µg/mL
- solubility ([1]; System III (Ethanol 95° 45%/Demineralized water 55%), 8% propyleneglycol): 7700 µg/mL
- solubility ([1]; System III (Ethanol 95° 45%/Demineralized water 55%), 12% propyleneglycol): 7700 µg/mL
- area under the curve from 0 to 48 hours [2, 4]: 18.43±2.091 ng/ml per h
- maximum concentration (plasma) [2, 4]: 0.65 ± 0.073 ng/mL
- state of equilibrium obtained ([2]; daily application): after the 3rd day of treatment
- concentration at 72 h ([2]; female, human, plasma, topical, 4 mg, 72 hours after the last application, read-out: plasma level): 0.19 ± 0.027 ng/mL
- area under the curve from 0 to 48 hours [2, 5]: 6.08±0.775 ng/ml per h
- maximum concentration (plasma) [2, 5]: 0.25 ± 0.027 ng/mL
- nomegestrol acetate in the blood (m±sd) (breast pain): 0.44 ± 0.30 ng/mL
- solubility ([3]; 95° ethanol/water binary mixture, aqueous with cosolvent or surfactant or cyclodextrin, 95° ethanol/water binary mixture, 10% 95° ethanol, read-out: Solubility of nomegestrol acetate): 70 µg/mL
- solubility ([3]; 95° ethanol/water binary mixture, aqueous with cosolvent or surfactant or cyclodextrin, 95° ethanol/water binary mixture, 20% 95° ethanol, read-out: Solubility of nomegestrol acetate): 113 µg/mL
- solubility ([3]; 95° ethanol/water binary mixture, aqueous with cosolvent or surfactant or cyclodextrin, 95° ethanol/water binary mixture, 30% 95° ethanol, read-out: Solubility of nomegestrol acetate): 683 µg/mL
- solubility ([3]; 95° ethanol/water binary mixture, aqueous with cosolvent or surfactant or cyclodextrin, 95° ethanol/water binary mixture, 40% 95° ethanol, read-out: Solubility of nomegestrol acetate): 2820 µg/mL
- solubility ([3]; 95° ethanol/water binary mixture, aqueous with cosolvent or surfactant or cyclodextrin, 95° ethanol/water binary mixture, 50% 95° ethanol, read-out: Solubility of nomegestrol acetate): 7330 µg/mL
- solubility ([3]; 95° ethanol/water binary mixture, aqueous with cosolvent or surfactant or cyclodextrin, 95° ethanol/water binary mixture, 60% 95° ethanol, read-out: Solubility of nomegestrol acetate): 17800 µg/mL
- solubility ([3]; 95° ethanol/water binary mixture, aqueous with cosolvent or surfactant or cyclodextrin, 95° ethanol/water binary mixture, 70% 95° ethanol, read-out: Solubility of nomegestrol acetate): 24800 µg/mL
- solubility ([3]; 95° ethanol/water binary mixture, aqueous with cosolvent or surfactant or cyclodextrin, 95° ethanol/water binary mixture, 80% 95° ethanol, read-out: Solubility of nomegestrol acetate): 29500 µg/mL
- solubility ([3]; 95° ethanol/water binary mixture, aqueous with cosolvent or surfactant or cyclodextrin, 95° ethanol/water binary mixture, 90% 95° ethanol, read-out: Solubility of nomegestrol acetate): 26600 µg/mL
- solubility ([3]; 95° ethanol/water binary mixture, organic solvent or mixture, 95° ethanol/water binary mixture, 100% 95° ethanol, read-out: Solubility of nomegestrol acetate): 32800 µg/mL
- solubility ([3]; 95° ethanol/water binary mixture, water, 95° ethanol/water binary mixture, 0% 95° ethanol, read-out: Solubility of nomegestrol acetate): 56 µg/mL
- solubility ([3]; aqueous-alcoholic solvent mixture, aqueous with cosolvent or surfactant or cyclodextrin, aqueous-alcoholic mixture, 0% propyleneglycol, 3% Solketal, read-out: Solubility of nomegestrol acetate): 6700 µg/mL
- solubility ([3]; aqueous-alcoholic solvent mixture, aqueous with cosolvent or surfactant or cyclodextrin, aqueous-alcoholic mixture, 0% propyleneglycol, 3% Vitamin E TPGS, read-out: Solubility of nomegestrol acetate): 7650 µg/mL
- solubility ([3]; aqueous-alcoholic solvent mixture, aqueous with cosolvent or surfactant or cyclodextrin, aqueous-alcoholic mixture, 0% propyleneglycol, 8% Solketal, read-out: Solubility of nomegestrol acetate): 8600 µg/mL
- solubility ([3]; aqueous-alcoholic solvent mixture, aqueous with cosolvent or surfactant or cyclodextrin, aqueous-alcoholic mixture, 0% propyleneglycol, 8% Transcutol®, read-out: Solubility of nomegestrol acetate): 10700 µg/mL
- solubility ([3]; aqueous-alcoholic solvent mixture, aqueous with cosolvent or surfactant or cyclodextrin, aqueous-alcoholic mixture, 0% propyleneglycol, 8% Vitamin E TPGS, read-out: Solubility of nomegestrol acetate): 11100 µg/mL
- solubility ([3]; aqueous-alcoholic solvent mixture, aqueous with cosolvent or surfactant or cyclodextrin, aqueous-alcoholic mixture, 3% propyleneglycol, 8% Transcutol®, read-out: Solubility of nomegestrol acetate): 10600 µg/mL
- solubility ([3]; aqueous-alcoholic solvent mixture, aqueous with cosolvent or surfactant or cyclodextrin, aqueous-alcoholic mixture, 8% propyleneglycol, 0% Solketal, read-out: Solubility of nomegestrol acetate): 7700 µg/mL
- solubility ([3]; aqueous-alcoholic solvent mixture, aqueous with cosolvent or surfactant or cyclodextrin, aqueous-alcoholic mixture, 8% propyleneglycol, 0% Transcutol®, read-out: Solubility of nomegestrol acetate): 7700 µg/mL
- solubility ([3]; aqueous-alcoholic solvent mixture, aqueous with cosolvent or surfactant or cyclodextrin, aqueous-alcoholic mixture, 8% propyleneglycol, 0% Vitamin E TPGS, read-out: Solubility of nomegestrol acetate): 7700 µg/mL
- solubility ([3]; aqueous-alcoholic solvent mixture, aqueous with cosolvent or surfactant or cyclodextrin, aqueous-alcoholic mixture, 8% propyleneglycol, 3% Solketal, read-out: Solubility of nomegestrol acetate): 10700 µg/mL
- solubility ([3]; aqueous-alcoholic solvent mixture, aqueous with cosolvent or surfactant or cyclodextrin, aqueous-alcoholic mixture, 8% propyleneglycol, 3% Transcutol®, read-out: Solubility of nomegestrol acetate): 7950 µg/mL
- solubility ([3]; aqueous-alcoholic solvent mixture, aqueous with cosolvent or surfactant or cyclodextrin, aqueous-alcoholic mixture, 8% propyleneglycol, 3% Vitamin E TPGS, read-out: Solubility of nomegestrol acetate): 12500 µg/mL
- solubility ([3]; ethanol/water/Labrasol solvent mixture with propyleneglycol, aqueous with cosolvent or surfactant or cyclodextrin, System Ethanol 95° 45%/Water 50%/Labrasol® 5%, 10% propyleneglycol, read-out: Solubility of l'nomegestrol acetate): 9500 µg/mL
- solubility ([3]; ethanol/water/Labrasol solvent mixture with propyleneglycol, aqueous with cosolvent or surfactant or cyclodextrin, System Ethanol 95° 45%/Water 50%/Labrasol® 5%, 15% propyleneglycol, read-out: Solubility of l'nomegestrol acetate): 10200 µg/mL
- solubility ([3]; ethanol/water/Labrasol solvent mixture, aqueous with cosolvent or surfactant or cyclodextrin, System Ethanol 95° 45%/Water 50%/Labrasol® 5%, 0% propyleneglycol, read-out: Solubility of l'nomegestrol acetate): 9400 µg/mL
- solubility ([3]; ethanol/water/propyleneglycol solvent mixture, aqueous with cosolvent or surfactant or cyclodextrin, System III (Ethanol 95° 45%/Demineralized water 55%), 2% propyleneglycol, read-out: Solubilities): 5100 µg/mL
- solubility ([3]; ethanol/water/propyleneglycol ternary mixture, aqueous with cosolvent or surfactant or cyclodextrin, System I (Ethanol 95° 30%/Demineralized water 70%), 0% propyleneglycol, read-out: Solubilities): 600 µg/mL
- solubility ([3]; ethanol/water/propyleneglycol ternary mixture, aqueous with cosolvent or surfactant or cyclodextrin, System I (Ethanol 95° 30%/Demineralized water 70%), 4% propyleneglycol, read-out: Solubilities): 500 µg/mL
- solubility ([3]; ethanol/water/propyleneglycol ternary mixture, aqueous with cosolvent or surfactant or cyclodextrin, System I (Ethanol 95° 30%/Demineralized water 70%), 6% propyleneglycol, read-out: Solubilities): 700 µg/mL
- solubility ([3]; ethanol/water/propyleneglycol ternary mixture, aqueous with cosolvent or surfactant or cyclodextrin, System I (Ethanol 95° 30%/Demineralized water 70%), 8% propyleneglycol, read-out: Solubilities): 1000 µg/mL
- solubility ([3]; ethanol/water/propyleneglycol ternary mixture, aqueous with cosolvent or surfactant or cyclodextrin, System I (Ethanol 95° 30%/Demineralized water 70%), 12% propyleneglycol, read-out: Solubilities): 1100 µg/mL
- solubility ([3]; ethanol/water/propyleneglycol ternary mixture, aqueous with cosolvent or surfactant or cyclodextrin, System I (Ethanol 95° 30%/Demineralized water 70%), 20% propyleneglycol, read-out: Solubilities): 1500 µg/mL
- solubility ([3]; ethanol/water/propyleneglycol ternary mixture, aqueous with cosolvent or surfactant or cyclodextrin, System II (Ethanol 95° 40%/Demineralized water 60%), 0% propyleneglycol, read-out: Solubilities): 2900 µg/mL
- solubility ([3]; ethanol/water/propyleneglycol ternary mixture, aqueous with cosolvent or surfactant or cyclodextrin, System II (Ethanol 95° 40%/Demineralized water 60%), 4% propyleneglycol, read-out: Solubilities): 2600 µg/mL
- solubility ([3]; ethanol/water/propyleneglycol ternary mixture, aqueous with cosolvent or surfactant or cyclodextrin, System II (Ethanol 95° 40%/Demineralized water 60%), 8% propyleneglycol, read-out: Solubilities): 3200 µg/mL
- solubility ([3]; ethanol/water/propyleneglycol ternary mixture, aqueous with cosolvent or surfactant or cyclodextrin, System II (Ethanol 95° 40%/Demineralized water 60%), 20% propyleneglycol, read-out: Solubilities): 3900 µg/mL
- solubility ([3]; ethanol/water/propyleneglycol ternary mixture, aqueous with cosolvent or surfactant or cyclodextrin, System III (Ethanol 95° 45%/Demineralized water 55%), 0% propyleneglycol, read-out: Solubilities): 5100 µg/mL
- solubility ([3]; ethanol/water/propyleneglycol ternary mixture, aqueous with cosolvent or surfactant or cyclodextrin, System III (Ethanol 95° 45%/Demineralized water 55%), 4% propyleneglycol, read-out: Solubilities): 5100 µg/mL
- solubility ([3]; ethanol/water/propyleneglycol ternary mixture, aqueous with cosolvent or surfactant or cyclodextrin, System III (Ethanol 95° 45%/Demineralized water 55%), 6% propyleneglycol, read-out: Solubilities): 5100 µg/mL
- solubility ([3]; ethanol/water/propyleneglycol ternary mixture, aqueous with cosolvent or surfactant or cyclodextrin, System III (Ethanol 95° 45%/Demineralized water 55%), 20% propyleneglycol, read-out: Solubilities): 7900 µg/mL
SMILES: CC(=O)O[C@]1(C(C)=O)CC[C@H]2[C@@H]3C=C(C)C4=CC(=O)CC[C@@H]4[C@H]3CC[C@@]21C [nomegestrol acetate]
